Results as given in the NIST ThermoML archive (doi:10.1021/je200628n).
Numbers after ± are expanded uncertainties.

Assay: activity coefficient (dimensionless); of the first substance listed, at infinite dilution; xn = mol fraction of the nth substance listed
Settings: 101 kPa, Liquid, Chromatography, x1 = 0

Structure (SMILES) | activity coefficient (348.15 K) | activity coefficient (338.2 K) | activity coefficient (353.22 K) | also measured
CCCCCl [1-chlorobutane] + NCCCCCCCCCCCCN |  |  |  | activity coefficient (348.25 K): 2.71 ± 0.14; activity coefficient (353.15 K): 2.63 ± 0.14; activity coefficient (358.25 K): 2.56 ± 0.13; activity coefficient (363.21 K): 2.46 ± 0.13
CCCCCCCCCC [decane] + NCCCCCCCCN | 4.36 ± 0.22 |  |  | activity coefficient (328.15 K): 5.47 ± 0.28; activity coefficient (338.15 K): 4.82 ± 0.25; activity coefficient (343.15 K): 4.58 ± 0.23
C=CCCCCCCCC [1-decene] + NCCCCCCCCCCN | 3.82 ± 0.2 | 4.34 ± 0.22 | 3.57 ± 0.18 | 
C=CCCCCCC [oct-1-ene] + NCCCCCCCCCCN | 3.65 ± 0.19 | 4.09 ± 0.21 | 3.45 ± 0.18 | 
CO [methanol] + NCCCCCCCCN | 0.369 ± 0.029 |  |  | activity coefficient (328.15 K): 0.284 ± 0.028; activity coefficient (338.15 K): 0.317 ± 0.028; activity coefficient (343.15 K): 0.34 ± 0.028
CCCO [propan-1-ol] + NCCCCCCCCCCN | 0.731 ± 0.036 | 0.622 ± 0.033 | 0.772 ± 0.037 | 
CCCOC(C)=O [propyl ethanoate] + NCCCCCCCCCCN | 1.11 ± 0.05 | 1.39 ± 0.066 | 0.991 ± 0.044 | 
CCCCCCC [heptane] + NCCCCCCCCCCN | 4.64 ± 0.24 | 5.05 ± 0.26 | 4.46 ± 0.23 | 
CCCCCC [hexane] + NCCCCCCCCCCCCN |  |  |  | activity coefficient (348.25 K): 4.86 ± 0.25; activity coefficient (353.15 K): 4.8 ± 0.25; activity coefficient (358.25 K): 4.74 ± 0.24; activity coefficient (363.21 K): 4.69 ± 0.24
CCCCCC [hexane] + NCCCCCCCCCCN | 4.55 ± 0.23 | 4.96 ± 0.26 | 4.41 ± 0.23 | 
CCCCO [butan-1-ol] + NCCCCCCCCCCN | 0.774 ± 0.037 | 0.721 ± 0.035 | 0.815 ± 0.038 | 
ClC(Cl)(Cl)Cl [tetrachloromethane] + NCCCCCCCCCCN | 2.05 ± 0.1 | 2.25 ± 0.12 | 1.98 ± 0.1 | 
CCO [ethanol] + NCCCCCCCCCCN | 0.676 ± 0.034 | 0.602 ± 0.033 | 0.718 ± 0.035 | 
CCCCCCl [1-chloropentane] + NCCCCCCCCN | 1.73 ± 0.087 |  |  | activity coefficient (328.15 K): 2.71 ± 0.14; activity coefficient (338.15 K): 2.12 ± 0.11; activity coefficient (343.15 K): 1.92 ± 0.098
C=CCCCCCCCC [1-decene] + NCCCCCCCCCCCCN |  |  |  | activity coefficient (348.25 K): 5.05 ± 0.26; activity coefficient (353.15 K): 4.8 ± 0.25; activity coefficient (358.25 K): 4.47 ± 0.23; activity coefficient (363.21 K): 4.24 ± 0.22
